Laboratory results as given in patent US20260043803A1, “MEANS FOR DETECTING S[…]” (ACADEMISCH ZIEKENHUIS LEIDEN (H.O.D.N. LUMC), priority 2022, published 2026).

What was measured:
IgA antibodies [1] = experiment: Microarray, IgA binding in nasosorption samples, controlled human infection; details: 20 cercariae, baseline and 8 weeks post infection; FIG. 10
Excerpt: (§1) Immunopurified native schistosome CAA, synthetic di-, tetra-, hexa-, and octasaccharides with appropriate positive and negative controls were printed in triplicates onto epoxilane coated glass slides (Nexterion Slide E, Schott 1066643) with a MicroGrid robot (BioRobotics). See general methodology in (de Boer, Hokke et al. 2007).
(§2) Microarrays with fitted silicone gaskets (64 samples/slide) were reconstituted in 1×PBS and blocked for minimum one hour (PBS, 2% bovine serum albumin (Sigma-Aldrich A3059) with 50 mM ethanolamine (>99.5%, Sigma-Aldrich 411000)) on shaker. Each array washed in PBS Tween 0.05%, PBS and 30 ul serum sample 1:100 in buffer/array added for 1 hour incubation at room temperature on shaker. Arrays were then washed (as above) and 1:1000 detection antibodies added (goat anti-human IgG-Cy-3, Sigma-Aldrich C2571; goat anti-human IgM-AF647, Invitrogen, A21249) for 30 min room temperature incubation on shaker. Finally, slides were washed as above with an additional wash in milli-Q before they were spun dry and scanned (Agilent Scan Control™ 2006). […]
(§3) Microarray scan images were obtained through Agilent Feature Extraction 10.7.3.1 and imported into GenePixPro vs7. Spot morphology quality was inspected and median fluorescence intensity (MFI) values obtained per nanodot with an average of a triplicate per target used for analyses. […]

IgM antibodies = experiment: Microarray, serum IgM binding to printed CAA structures, controlled human infection samples; details: individual level, infection with 10, 20, 30 cercariae; FIG. 3-5
Excerpt: as §1
Microarrays with fitted silicone gaskets (64 samples/slide) were reconstituted in 1×PBS and blocked for minimum one hour (PBS, 2% bovine serum albumin (Sigma-Aldrich A3059) with 50 mM ethanolamine (>99.5%, Sigma-Aldrich 411000)) on shaker. Each array washed in PBS Tween 0.05%, PBS and 30 ul serum sample 1:100 in buffer/array added for 1 hour incubation at room temperature on shaker. Arrays were then washed (as above) and 1:1000 detection antibodies added (goat anti-human IgG-Cy-3, Sigma-Aldrich C2571; goat anti-human IgM-AF647, Invitrogen, A21249) for 30 min room temperature incubation on shaker. Finally, slides were washed as above with an additional wash in milli-Q before they were spun dry and scanned (Agilent Scan Control™ 2006). For nasosorption samples, they were incubated as above with the following changes. Samples were eluted in PBS 1% BSA 0.05% Triton-X and incubated as 1:2 dilution. For detection goat anti-human IgA-Dylight 650 (Novus NBP 1-75754) was used in 500×dilution.
(§4) Microarray scan images were obtained through Agilent Feature Extraction 10.7.3.1 and imported into GenePixPro vs7. Spot morphology quality was inspected and median fluorescence intensity (MFI) values obtained per nanodot with an average of a triplicate per target used for analyses. Further data processing was done in Microsoft Excel and graphs were generated using GraphPad Prism 9.3.1.

IgA antibodies [2] = experiment: Microarray, IgA binding in serum samples, controlled human infection; details: 20 cercariae, n=7, eight weeks post infection; FIG. 9
Excerpt: as §1
Microarrays with fitted silicone gaskets (64 samples/slide) were reconstituted in 1×PBS and blocked for minimum one hour (PBS, 2% bovine serum albumin (Sigma-Aldrich A3059) with 50 mM ethanolamine (>99.5%, Sigma-Aldrich 411000)) on shaker. Each array washed in PBS Tween 0.05%, PBS and 30 ul serum sample 1:100 in buffer/array added for 1 hour incubation at room temperature on shaker. […] Finally, slides were washed as above with an additional wash in milli-Q before they were spun dry and scanned (Agilent Scan Control™ 2006). […] Samples were eluted in PBS 1% BSA 0.05% Triton-X and incubated as 1:2 dilution. […]
as §4

IgG antibodies = experiment: Microarray, serum IgG binding to printed CAA structures, controlled human infection samples; details: three individual sera, FIG. 14
Excerpt: as §1, §2, §3

Row | Compound | IgM background at baseline (specificity) (IgM antibodies) | IgM response pattern compared with native CAA (IgM antibodies) | also measured
1 | CC(=O)NC1C(O[C@@H]2OC(C(=O)O)[C@@H](O)C(O)C2O)[C@@H](O)C(CO)O[C@H]1OCC1O[C@@H](OCC2O[C@@H](OCC3O[C@@H](OCCCCCCN)C(NC(C)=O)C(O[C@@H]4OC(C(=O)O)[C@@H](O)C(O)C4O)[C@H]3O)C(NC(C)=O)C(O[C@@H]3OC(C(=O)O)[C@@H](O)C(O)C3O)[C@H]2O)C(NC(C)=O)C(O[C@@H]2OC(C(=O)O)[C@@H](O)C(O)C2O)[C@H]1O (some centres unmarked) [octasaccharide] | improves further | – | detection of specific IgA in nasosorption samples (IgA antibodies [1]): detectable; detection of specific IgA in serum (IgA antibodies [2]): detection
2 | CC(=O)NC1C(O[C@@H]2OC(C(=O)O)[C@@H](O)C(O)C2O)[C@@H](O)C(CO)O[C@H]1OCCCCCCN (stereo partly drawn) [disaccharide, 6-aminohexyl 2-acetamido-2-deoxy-3-O-(β-D-glucoronic acid)-β-D-galactopyranose] | – | not representative of CAA | –
3 | 6-aminohexyl 2-acetamido-2-deoxy-3-O-(3-D-glucoronic acid)-6-O-(2-acetamido-2-deoxy-3-O-(3-D-glucuronic acid)-6-O-(2-acetamido-2-deoxy-3-O-(β-D-glucuronic acid)-6-O-(2-acetamido-2-deoxy-3-O-(3-D-glucuronic acid)-6-O-(2-acetamido-2-deoxy-3-O-(3-D-glucuronic acid)-β-D-galactopyranose)-β-D-galactopyranose)-3-D-galactopyranose-β-D-galactopyranose [CAA decasaccharide] | – | – | IgG response at week 8 after infection (IgG antibodies; 20 male S. mansoni cercariae): equal or stronger than to shorter CAA fragments; IgG pre-infection response (IgG antibodies; prior to infection): negligible
4 | CC(=O)NC1C(O[C@@H]2OC(C(=O)O)[C@@H](O)C(O)C2O)[C@@H](O)C(CO)O[C@H]1OCC1O[C@@H](OCCCCCCN)C(NC(C)=O)C(O[C@@H]2OC(C(=O)O)[C@@H](O)C(O)C2O)[C@H]1O (stereo partly drawn) [tetrasaccharide, 6-aminohexyl 2-acetamido-2-deoxy-3-O-(β-D-glucoronic acid)-6-O-(2-acetamido-2-deoxy-3-O-(β-D-glucuronic acid)-β-D-galactopyranose)-β-D-galactopyranose] | too high | a dynamic range resembling native material is starting to appear | –
